From patent publication US11369609B2, “Small molecule Wnt inhibitor as treatment for dyslipidemia” (Yale University, priority 2019, dated 2022)

Tests used:
kidney endothelial cells = experiment: Fatty acid oxidation (14CO2 release from [14C]palmitate) in isolated kidney endothelial cells; type: in vivo, mice; details: diabetic CD-1 mice, Wnt inhibitor
Description: Endothelial cells from the kidneys of non-diabetic and diabetic mice were isolated using a standardized kit (Miltenyl Biotech, USA) by following the manufacturer's instructions. Briefly, kidneys were isolated and minced into small pieces. Using a series of enzymatic reactions by treating the tissue with trypsin and Collagenase type I solution, a single cell suspension was created. The pellet was dissolved with CD31 magnetic beads and the CD31-labelled cells were separated on a magnetic separator. The cells were further purified on a column. Cell number was counted by hemocytometer and cells were plated on 0.1% gelatin coated Petri dishes.
Cultured isolated kidney endothelial cells were incubated with medium containing 0.75 mmol/L palmitate (conjugated to 2% free fatty acid-free BSA/[^14C] palmitate at 2 μCi/mL) for 2 h. One mL of the culture medium was transferred to a sealable tube, the cap of which housed a Whatman filter paper disc. ^14CO2 trapped in the media was then released by acidification of media using 60% perchloric acid. Radioactivity that had become adsorbed onto the filter discs was then quantified by liquid scintillation counting.
It is increasingly recognized that defects in central metabolism contribute to kidney fibrosis (69, 76). Defective FA metabolism in EC leads to EndMT events (77). To investigate whether FA metabolism was deranged in the model, radiolabeled [^14C]palmitate uptake experiments were performed in isolated EC from mouse kidneys. FA uptake was higher in isolated EC from the diabetic kidneys of the more fibrotic strain (diabetic CD-1) when compared to kidney EC from the less-fibrotic strain (diabetic C57BL/6). […] FA oxidation (FAO) was also assessed by measuring the ^14CO2 release from radiolabeled [^14C]palmitate in cultured EC isolated from kidneys. […] In the next set of experiments, diabetic CD-1 mice were treated with the FA synthase inhibitor C75, the FAO inhibitor etomoxir, the PPARα agonist fenofibrate, and the cholesterol-lowering drug simvastatin for 4 weeks. […] (FIG. 23A). Fenofibrate and C75 restored the level of GR protein in CD31 positive cells, whereas etomoxir and simvastatin suppressed it (FIG. 23B).

canonical Wnt signaling [1] = experiment: Plasma cytokine array analysis (Luminex) in wnti-treated diabetic mice; type: in vivo
Description: FIG. 22. […] Cytokines and chemokines were measured in plasma by using the cytokine array analysis (Luminex). The plasma of wnti-treated diabetic mice was analyzed for cytokine array analysis. N=5/group. Data are shown as mean±SEM. Tukey test was used for the analysis of statistical significance. *p<0.05.
To determine whether inhibition of the Wnt signaling pathway could ameliorate the observed fibrosis, LGK974, a small molecule inhibitor of all secreted Wnts (43), was utilized. FIGS. 21A-21B depict the schematic diagram showing the experimental protocol for LGK974 treatment in diabetic CD-1 and UUO mice.

canonical Wnt signaling [2] = experiment: Renal fibrosis in diabetic GR^ECKO and control littermate mice treated with Wnt inhibitor; type: in vivo
Description: All experiments were performed in accordance with the National Institute of Health (NIH) Guidelines for the Care of Laboratory Animals. Mice lacking the endothelial glucocorticoid receptor (GR) (known as GR^ECKO) and those lacking this receptor on the Apo E null background (DKO) were generated as previously described (6). The induction of diabetes in CD-1 mice and C57B/L6 mice was performed according to previously established experimental protocols (38-42). Briefly, diabetes was induced in 10-week-old GR^ECKO mice with five consecutive intraperitoneal (IP) doses of streptozotocin (STZ) 50 mg/kg in 10 mmol/L citrate buffer (pH 4.5). Wnt inhibitor (LGK974) was provided to GR^ECKO and control littermate at 5 mg/kg at a frequency of six doses per week for 8 weeks (43). Etomoxir (20 mg/kg) and c75 (15 mg/kg) were dosed (ip) three times per week for 3 weeks in the GR^ECKO and control littermate. A single IP dose of 200 mg/kg STZ was used to induce diabetes in CD-1 mice. Fenofibrate (100 mg/kg), simvastatin (40 mg/kg), were dosed orally for 4 weeks in diabetic CD-1 mice. All mice were sacrificed after 4 weeks of treatment and tissues and blood were harvested. Urine albumin levels were assayed using a Mouse Albumin ELISA Kit (Exocell, Philadelphia, Pa.).
A point-counting method was utilized to evaluate the relative area of the mesangial matrix. PAS-stained glomeruli from each mouse were analyzed using a digital microscope screen grid containing 540 (27×20) points. Masson's trichrome-stained images were evaluated by ImageJ software, and the fibrotic areas were estimated.
Deparaffinized sections were incubated with picrosirius red solution for 1 hour at room temperature. The slides were washed twice with acetic acid solution for 30 seconds per wash. The slides were then dehydrated in absolute alcohol three times, cleared in xylene, and mounted with a synthetic resin. Sirius red staining was analyzed using ImageJ software, and fibrotic areas were quantified.
Frozen kidney sections (5 μm) were used for immunofluorescence; double positive labeling with CD31/αSMA, CD31/TGFβR1 and E-cadherin/αSMA was measured. Briefly, frozen sections were dried and placed in acetone for 10 min at −30° C. Once the sections were dried, they were washed twice in phosphate-buffered saline (PBS) for 5 min and then blocked in 2% bovine serum albumin/PBS for 30 min at room temperature. Thereafter, the sections were incubated in primary antibody (1:100) for 1 hour and washed in PBS (5 min) three times. Next, the sections were incubated with the secondary antibodies for 30 min, washed with PBS three times (5 min each), and mounted with mounting medium with DAPI (Vector Laboratories, Burlingame, Calif.). The immune-labeled sections were analyzed by fluorescence microscopy. For each mouse, original magnification of ×400 pictures were obtained from six different areas, and quantification was performed.
Frozen sections (5 μm) were used for the detection of EndMT and EMT. Cells undergoing EndMT were detected by double-positive labeling for CD31 and αSMA and/or TGFβR1. Cells undergoing EMT were detected by double-positive labeling for E-cadherin and αSMA. Sections were analyzed and quantified by fluorescence microscopy.
To determine whether Wnt inhibition could mitigate the renal fibrosis observed in diabetic mice lacking endothelial GR, a cohort of animals was treated with the Wnt inhibitor, LGK974. At the age of 8 weeks, control and GR^ECKO mice were injected with STZ 50 mg/kg for five consecutive days. Sixteen weeks after injection, LGK974 was administered by oral gavage for eight additional weeks (FIG. 16A).

[3] = diabetic control vs diabetic GR^ECKO mice

Compound: Cc1cc(-c2ncc(CC(=O)Nc3ccc(-c4cnccn4)cn3)cc2C)ccn1 [LGK974]
- level of FAO in isolated kidney EC (kidney endothelial cells): able to restore the level of FAO
- cytokine- and chemokine reprogramming in plasma (canonical Wnt signaling [1]): disrupts the cytokine- and chemokine reprogramming
- plasma CCL4 level (canonical Wnt signaling [1]): significantly suppressed
- plasma CCL5 level (canonical Wnt signaling [1]): elevating
- plasma G-CSF level (canonical Wnt signaling [1]): significantly suppressed
- plasma IL-1β level (canonical Wnt signaling [1]): significantly suppressed
- plasma IL-6 level (canonical Wnt signaling [1]): significantly suppressed
- plasma IL-10 level (canonical Wnt signaling [1]): significantly suppressed
- plasma MCP-1 level (canonical Wnt signaling [1]): significantly suppressed
- plasma TNFα level (canonical Wnt signaling [1]): significantly suppressed
- effect on Wnt signaling, fibrogenic phenotype and endothelial GR level in GR^ECKO (canonical Wnt signaling [2]; GR^ECKO vs mouse model of diabetic kidney disease): less evident
- body weight (canonical Wnt signaling [2]; at sacrifice, among the groups, LGK974 oral gavage 8 weeks): no differences
- level of EMT (E-cadherin/αSMA co-positive cells) (canonical Wnt signaling [2]; control and diabetic GR^ECKO mice): significantly reduced
- renal fibrosis (canonical Wnt signaling [2]; diabetic GR^ECKO and DKO mice (legend of FIG. 16)): partially abrogates the renal fibrosis
- kidney weight (canonical Wnt signaling [2]; diabetic GR^ECKO and diabetic control mice): significant reduction
- EndMT (CD31/αSMA co-positive cells) (canonical Wnt signaling [2]; diabetic GR^ECKO mice): less pronounced
- relative area of fibrosis (canonical Wnt signaling [2]; diabetic GR^ECKO mice): less pronounced, though still significant
- relative collagen deposition (canonical Wnt signaling [2]; diabetic GR^ECKO mice): less pronounced, though still significant
- tubular damage (canonical Wnt signaling [2]; diabetic GR^ECKO mice): less pronounced, though still significant
- EndMT (CD31/αSMA co-positive cells) (canonical Wnt signaling [2]; diabetic control mice): significantly suppressed
- relative area of fibrosis (canonical Wnt signaling [2]; diabetic control mice): clearly improved
- relative collagen deposition (canonical Wnt signaling [2]; diabetic control mice): clearly improved
- tubular damage (canonical Wnt signaling [2]; diabetic control mice): clearly improved
- staining of fibronectin (canonical Wnt signaling [2]; [3]): A similar pattern was observed
- staining of β-catenin (canonical Wnt signaling [2]; [3]): A similar pattern was observed
